# Results from patent US20210284668A1, “GOLD (I)-PHOSPHINE 1,2,3-TRIAZOLE DERIVATIVES WITH ANTIBIOTIC PROPERTIES” (Centre National de la Recherche Scientifique, priority 2018, published 2021).
# Several values for one entry are separate records, joined by “and”; a condition that tells them apart may be missing. Equal values may be shown once.
# Experiments:
# S. epidermidis ATCC14990 = assay: MIC by microdilution, S. epidermidis ATCC14990; assay type: cell-based, Staphylococcus epidermidis; settings: S. epidermidis ATCC14990 (MecA negative, wild-type), in duplicate
# Description: (§1) The antibacterial profile of each derivative was evaluated by the standard microdilution method for susceptibility testing on 16 different strains, following the guidelines of CLSI. The selected panel included: • S. aureus ATCC25923 (MecA negative, wild-type) • S. aureus ATCC29213 (MecA negative, wild-type) • S. aureus ATCC700699 (MecA positive, glycopeptide resistant) • S. aureus ST20131365 (MecA positive, glycopeptide resistant) • S. epidermidis ATCC14990 (MecA negative, wild-type) • S. epidermidis ATCC35984 (MecA positive) • S. epidermidis ST20140436 (MecA positive, glycopeptide resistant) • S. epidermidis ST20150446 (MecA positive, glycopeptide resistant) • E. faecalis JH2-2 (wild-type) • E. faecalis UCN41 (VanA positive, glycopeptide resistant) • E. faecalis V583 (VanB positive, glycopeptide resistant) • E. faecium ATCC19434T (wild-type) • E. faecium BM4147 (VanA positive, glycopeptide resistant) • E. faecium AUS0004 (VanB positive, glycopeptide resistant) • E. coli ATCC25922 (wild-type) • Clostridium difficile ATCC9689 (wild-type)
# (§2) Both series issued from the SAR study were evaluated for their antibacterial activity on a panel of characterized strains obtained from the French National Reference Centers for Staphylococci (Lyon, Pr. Fréderique Laurent) and for Enterococci (Caen, Pr. Vincent Cattoir), respectively. As shown in the following tables, both series contain very active compounds on multi-resistant Gram-positive bacteria (Minimal Inhibitory Concentrations lower than comparator antibiotic ampicillin). Furthermore, a very important antibacterial effect has been shown too on a strain of Clostridium difficile, a Gram-positive, spore-forming, bacillus responsible for post-antibiotic diarrhoae.
# (§3) The antibacterial activity of test compounds was evaluated on a selected panel of Gram-positive (4 Staphylococcus aureus, 4 Staphylococcus epidermidis, 3 Enterococcus faecalis, 3 Enterococcus faecium, 1 Clostridium difficile) and Gram-negative strains (1 Escherichia coli, 1 Klebsiella pneumoniae, 1 Pseudomonas aeruginosa, 1 Acinetacter baumannii) with known features of antibiotic resistance (from wild-type susceptibility to multi-drug resistance). The Minimal Inhibitory Concentration (MIC) of test compounds was determined in duplicate by the microdilution method in 96-well microplates with a final volume of 100 μL per well and Mueller-Hinton broth as the growth medium, as recommended by the CLSI (Clinical and Laboratory Standards Institute, document Mo7-A10, USA).
# E. faecium ATCC19434T = assay: MIC by microdilution, E. faecium ATCC19434T; assay type: cell-based, Enterococcus faecium; set-up: unit not given here; settings: E. faecium ATCC19434T (wild-type), in duplicate
# Description: as §1, §2, §3
# S. epidermidis ATCC35984 = assay: MIC by microdilution, S. epidermidis ATCC35984; assay type: cell-based, Staphylococcus epidermidis; settings: S. epidermidis ATCC35984 (MecA positive), in duplicate
# Description: as §1, §2, §3
# S. aureus ATCC700699 = assay: MIC by microdilution, S. aureus ATCC700699; assay type: cell-based, Staphylococcus aureus; set-up: unit not given here; settings: S. aureus ATCC700699 (MecA positive, glycopeptide resistant), in duplicate
# Description: as §1, §2, §3
# [1] = system: panel of Gram-positive and Gram-negative strains; assay: Antibacterial profile on the selected panel of strains; assay type: cell-based; settings: summary of Tables 1-12
# Description: as §1, §2, §3
# S. aureus ATCC25923 = assay: MIC by microdilution, S. aureus ATCC25923; assay type: cell-based, Staphylococcus aureus; settings: S. aureus ATCC25923 (MecA negative, wild-type), Mueller-Hinton broth, in duplicate
# Description: as §1, §2, §3
# E. faecalis V583 = assay: MIC by microdilution, E. faecalis V583; assay type: cell-based, Enterococcus faecalis; settings: E. faecalis V583 (VanB positive, glycopeptide resistant), in duplicate
# Description: as §1, §2, §3
# E. faecalis UCN41 = assay: MIC by microdilution, E. faecalis UCN41; assay type: cell-based, Enterococcus faecalis; set-up: unit not given here; settings: E. faecalis UCN41 (VanA positive, glycopeptide resistant), in duplicate
# Description: as §1, §2, §3
# E. coli ATCC25922 = assay: MIC by microdilution, E. coli ATCC25922; assay type: cell-based, Escherichia coli; settings: E. coli ATCC25922 (wild-type), in duplicate
# Description: as §1, §2, §3
# E. faecalis JH2-2 = assay: MIC by microdilution, E. faecalis JH2-2; assay type: cell-based, Enterococcus faecalis; set-up: unit not given here; settings: E. faecalis JH2-2 (wild-type), in duplicate
# Description: as §1, §2, §3
# E. faecium AUS0004 = assay: MIC by microdilution, E. faecium AUS0004; assay type: cell-based, Enterococcus faecium; settings: E. faecium AUS0004 (VanB positive, glycopeptide resistant), in duplicate
# Description: as §1, §2, §3
# S. aureus ST20131365 = assay: MIC by microdilution, S. aureus ST20131365; assay type: cell-based, Staphylococcus aureus; settings: S. aureus ST20131365 (MecA positive, glycopeptide resistant), in duplicate
# Description: as §1, §2, §3
# E. faecium BM4147 = assay: MIC by microdilution, E. faecium BM4147; assay type: cell-based, Enterococcus faecium; set-up: unit not given here; settings: E. faecium BM4147 (VanA positive, glycopeptide resistant), in duplicate
# Description: as §1, §2, §3
# [2] = system: Clostridium difficile ATCC700057; assay: MIC by microdilution, Clostridium difficile; assay type: cell-based; settings: strain ATCC70057 [sic] (Tables 1-2) / ATCC700057 (Tables 3-10), in duplicate
# [3] = system: S. epidermidis ST20150446; assay: MIC by microdilution, S. epidermidis ST20150446; assay type: cell-based, Staphylococcus epidermidis; settings: S. epidermidis ST20150446 (MecA positive, glycopeptide resistant), in duplicate
# Description: as §1, §2, §3
# [4] = system: S. epidermidis ST20140436; assay: MIC by microdilution, S. epidermidis ST20140436; assay type: cell-based, Staphylococcus epidermidis; settings: S. epidermidis ST20140436 (MecA positive, glycopeptide resistant), in duplicate
# Description: as §1, §2, §3
Compound,Minimal Inhibitory Concentration (MIC) (S. epidermidis ATCC14990),Minimal Inhibitory Concentration (MIC) (E. faecium ATCC19434T),Minimal Inhibitory Concentration (MIC) (S. epidermidis ATCC35984),Minimal Inhibitory Concentration (MIC) (S. aureus ATCC700699),antimicrobial / antibacterial activity (in words) [1],Minimal Inhibitory Concentration (MIC) (S. aureus ATCC25923),Minimal Inhibitory Concentration (MIC) (E. faecalis V583),Minimal Inhibitory Concentration (MIC) (E. faecalis UCN41),Minimal Inhibitory Concentration (MIC) (E. coli ATCC25922),Minimal Inhibitory Concentration (MIC) (E. faecalis JH2-2),Minimal Inhibitory Concentration (MIC) (E. faecium AUS0004),Minimal Inhibitory Concentration (MIC) (S. aureus ST20131365),Minimal Inhibitory Concentration (MIC) (E. faecium BM4147),Minimal Inhibitory Concentration (MIC) [2],Minimal Inhibitory Concentration (MIC) [3],Minimal Inhibitory Concentration (MIC) [4]
"CC(=O)OC[C@H]1O[C@@H]([S-])[C@H](OC(C)=O)[C@@H](OC(C)=O)[C@@H]1OC(C)=O.CCP(CC)CC.[Au+] [Auranofin, reference compound]",≤0.06,≤0.06,≤0.06,≤0.06,,,,,,,,,,,,
C#CCOC(=O)N[C@@H](C(=O)N[C@@H]1C(=O)N2[C@@H]1SC(C)(C)[C@@H]2C(=O)O)c1ccccc1 [TMB2],,,,,do not show an antibacterial activity,,,,,,,,,,,
CC[P+](CC)(CC)[Au-][c]1nn[nH]c1CNC(=O)NC(C(=O)NC1C(=O)N2C1SC(C)(C)C2C(=O)O)c1ccccc1 (stereo not drawn) [TMB24],≤0.06,0.5,0.125,0.125 and 0.25,have antimicrobial activity,0.125,0.25 and 0.5,0.25,>8,0.25 and 0.5,0.5,0.25,0.5,≤0.06,,
CC[P+](CC)(CC)[Au-][c]1nn[nH]c1CN1CCOCC1 [TMB32],≤0.06,0.25,≤0.06,0.125 and 0.25,have antimicrobial activity,,0.25,0.25,>8,0.125,0.25,0.125,0.25,≤0.06,0.125 and 0.25,
CC[P+](CC)(CC)[Au-][c]1nn[nH]c1CCC(=O)N[C@H](CO)C(=O)O [TMB38],≤0.06,≤0.06,≤0.06,0.125,have antimicrobial activity,≤0.06,0.125,0.125,,0.125,0.125,≤0.06,0.125,0.125 and 0.25,≤0.06,≤0.06
